This note sets out measurements from patent US8846750B2, “Pharmaceutical and food compositions for preventing or treating diabetes or obesity” (Korea Ocean Research and Development Institute, priority 2010, dated 2014).

Type in all cases: biochemical
The target in one experiment is T1, PTP-1b (Homo sapiens, UniProt P18031).
T1 construct: purchased Bioneer, Korea
T1 sequence (P18031 1-435): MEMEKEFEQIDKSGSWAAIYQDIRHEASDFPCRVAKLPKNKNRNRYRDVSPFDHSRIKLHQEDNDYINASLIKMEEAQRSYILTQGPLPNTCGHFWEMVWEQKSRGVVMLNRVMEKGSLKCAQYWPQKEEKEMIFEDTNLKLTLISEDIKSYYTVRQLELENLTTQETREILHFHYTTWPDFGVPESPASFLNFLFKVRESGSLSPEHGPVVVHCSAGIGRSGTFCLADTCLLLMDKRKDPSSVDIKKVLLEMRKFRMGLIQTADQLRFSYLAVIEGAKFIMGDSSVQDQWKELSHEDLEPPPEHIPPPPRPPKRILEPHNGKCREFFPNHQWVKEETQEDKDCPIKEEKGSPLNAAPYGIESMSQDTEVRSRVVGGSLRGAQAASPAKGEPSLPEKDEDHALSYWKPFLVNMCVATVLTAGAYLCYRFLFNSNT
Briefly: Selectivity for protein tyrosine phosphatases: PTP-1b. To be noted: at a concentration of 0.2 µM (IC50); read-out: inhibition rate against PTP-1b. As for the experimental part: (§1) In order to examine the selectivity of sodium lobarate for protein tyrosine phosphatases, the inhibitory activities of sodium lobarate against PTP-1b, PTPN2, PTPN5, PTPN6, PTPN7 and PTPN13 were examined by spectroscopically measuring the activities of the enzymes.
(§2) Specifically, to 0.5 mg/Ml of PTP-1b, PTPN2, PTPN5, PTPN6, PTPN7 or PTPN13 (Bioneer, Korea) in protein tyrosine phosphatase buffer (20 mM Tris-Hcl, pH 8.0, 0.75 mM NaCl, 0.5 mM EDTA, 5 mM β-mercaptoethanol, 50% glycerol), 0, 50, 100 or 200 nM sodium lobarate and the substrate [pTyr1146] insulin receptor (1142-1153, Sigma, USA) were added. Then, each of the mixtures was allowed to react at room temperature for 10-30 minutes, and then malachite green-molybdate dye solution (Sigma, USA) was added thereto and reacted at room temperature for 10 minutes. After completion of the reaction with the substrate, the absorbance at 620 nm was measured.
(§3) In order to examine the selectivity of Lobarin for protein tyrosine phosphatases, the inhibitory activities of Lobarin against PTP-1b, PTPN2, PTPN5, PTPN6, PTPN7 and PTPN13 were examined by spectroscopically measuring the activities of the enzymes.
Specifically, to 0.5 mg/Ml of PTP-1b, PTPN2, PTPN5, PTPN6, PTPN7 or PTPN13 (Bioneer, Korea) in protein tyrosine phosphatase buffer (20 mM Tris-Hcl, pH 8.0, 0.75 mM NaCl, 0.5 mM EDTA, 5 mM β-mercaptoethanol, 50% glycerol), 0, 50, 100 or 200 nM Lobarin and the substrate [pTyr1146] insulin receptor (1142-1153, Sigma, USA) were added. […] After completion of the reaction with the substrate, the absorbance at 620 nm was measured.
In order to examine the selectivity of Lobarstin for protein tyrosine phosphatases, the inhibitory activities of Lobarstin against PTP-1b, PTPN2, PTPN5, PTPN6, PTPN7 and PTPN13 were examined by spectroscopically measuring the activities of the enzymes. […] After completion of the reaction with the substrate, the absorbance at 620 nm was measured.

Experiment [1] concerns the target T2, PTP-1b (protein tyrosine phosphatase-1b) (Homo sapiens, UniProt P18031).
T2 construct: purchased Bioneer, Korea
T2 sequence (P18031 1-435): T1 sequence (P18031 1-435)
Kind of experiment: PTP-1b inhibitory activity, malachite green assay with [pTyr1146] insulin receptor substrate. To be noted: PTP-1b (Bioneer), absorbance at 620 nm; read-out: IC50 against PTP-1b. As for the experimental part: In order to analyze the PTP-1b (protein tyrosine phosphatase-1b) inhibitory activity of sodium lobarate, the activity of the enzyme was spectroscopically measured.
Specifically, to 0.5 mg/Ml of PTP-1b (Bioneer, Korea) in PTP-1b buffer (20 mM Tris-HCl, pH 8.0, 0.75 mM NaCl, 0.5 mM EDTA, 5 mM β-mercaptoethanol, 50% glycerol), 0, 1, 3, 10, 30, 100, 300, 1,000 and 3,000 nM of sodium lobarate and the substrate [pTyr1146] insulin receptor (1142-1153, Sigma, USA) were added. Each mixture was allowed to react at room temperature for 10-30 minutes, and malachite green-molybdate dye solution was added thereto and reacted at room temperature for 10 minutes. After completion between PTP-1b, sodium lobarate and the substrate, the absorbance at 620 nm was measured.
The activity of the enzyme was spectroscopically measured to analyze the protein PTP-1b inhibitory activity of Lobarin.
Specifically, to 0.5 mg/Ml of PTP-1b (Bioneer, Korea) in PTP-1b buffer (20 mM Tris-HCL, pH 8.0, 0.75 mM NaCl, 0.5 mM EDTA, 5 mM β-mercaptoethanol, 50% glycerol), 0, 1, 3, 10, 30, 100, 300, 1000 or 3000 nM Lobarin and the substrate [pTyr1146] insulin receptor (1142-1153, Sigma, USA) were added. Each of the mixtures was allowed to react at room temperature for 10-30 minutes, and malachite green-molybdate dye solution was added thereto and reacted at room temperature for 10 minutes. After completion between PTP-1b, Lobarin and the substrate, the absorbance at 620 nm was measured.
The activity of the enzyme was spectroscopically measured to analyze the protein PTP-1b inhibitory activity of Lobarstin. Specifically, to 0.5 mg/Ml of PTP-1b (Bioneer, Korea) in PTP-1b buffer (20 mM Tris-HCL, pH 8.0, 0.75 mM NaCl, 0.5 mM EDTA, 5 mM β-mercaptoethanol, 50% glycerol), 0, 1, 3, 10, 30, 100, 300, 1000 or 3000 nM Lobarstin and the substrate [pTyr1146] insulin receptor (1142-1153, Sigma, USA) were added. […] After completion between PTP-1b, Lobarstin and the substrate, the absorbance at 620 nm was measured.

For experiment [2], the system named is other protein tyrosine phosphatases (PTPN5, PTPN6, PTPN7, PTPN13). Briefly: Selectivity for protein tyrosine phosphatases: other phosphatases of the panel. To be noted: for inhibitory activity against other protein tyrosine phosphatases: 0, 50, 100 or 200 nM tested; for selectivity among protein tyrosine phosphatases: PTP-1b, PTPN2, PTPN5, PTPN6, PTPN7 and PTPN13. As for the experimental part:
as §1, §2, §3
as §2, with “Lobarin” for “sodium lobarate”
as §2, with “In order to examine the selectivity of Lobarstin for protein tyrosine phosphatases, the inhibitory activities of Lobarstin against PTP-1b, PTPN2, PTPN5, PTPN6, PTPN7 and PTPN13 were examined by spectroscopically measuring the activities of the enzymes. Specifically,” for “Specifically,”, “Lobarstin” for “sodium lobarate”

“And” between values parts separate entries of the source, which are not always exact repeats. Identical values can stand only once.

Usually inhibition stands for the change of the read-out against control, counted positive when it falls. For orientation: IC50 means the concentration at which inhibition is half-maximal. As to `CCCCCc1c(Oc2cc(OC)cc3c2C(=O)OC3(O)CCCC)c(O)cc(O)c1C(=O)O` (centres unmarked) [Lobarin], the inhibition at 0.2 µM at PTP-1b amounted to 52.2%. Moreover, the concentration for half-maximal inhibition (IC50) in experiment [1] is 149 nM and 155 nM. In experiment [2], the “inhibitory activity against other protein tyrosine phosphatases” value is on record as “no inhibitory activity” and the “selectivity among protein tyrosine phosphatases” value is recorded as “acts selectively only on PTP-1b”.
Regarding `CCC/C=C1/OC(=O)c2c(Oc3c(O)cc(O)c(C(=O)O)c3CCCCC)cc(OC)cc21` [Lobarstin], the inhibition at 0.2 µM on PTP-1b was determined as 48%. Moreover, the IC50 in experiment [1] was 155 nM. Further, in experiment [2], the “inhibitory activity against other protein tyrosine phosphatases” value was “no inhibitory activity” and the “selectivity among protein tyrosine phosphatases” value is listed as “acts selectively only on PTP-1b”.
`CCCCCc1c2c(cc(O)c1C(=O)[O-])OC(=O)c1c(cc(OC)cc1C(=O)CCCC)O2.[Na+]` [sodium lobarate]: on PTP-1b, the inhibition at 0.2 µM was 50%. Further, the half-inhibitory concentration (IC50) in experiment [1] came out at 350 nM. The “selectivity among protein tyrosine phosphatases” value in experiment [2] was “acts selectively only on PTP-1b”.
